From patent US10053468B2, “Heterocyclic compound” (TAKEDA PHARMACEUTICAL COMPANY LIMITED, priority 2013, dated 2018)
Like-named read-outs stand apart in the source and are kept apart here.

What was measured:
RORγt [1] = target: T1, RORγt (Homo sapiens, UniProt P51449); test: RORγt binding test using fluorescent-labeled cholesterol (TR-FRET); settings: read-out: Binding inhibitory rate of fluorescent-labeled cholesterol to RORγt at test compound 1 μM (%)
T1 sequence (P51449 1-497 isoform P51449-2): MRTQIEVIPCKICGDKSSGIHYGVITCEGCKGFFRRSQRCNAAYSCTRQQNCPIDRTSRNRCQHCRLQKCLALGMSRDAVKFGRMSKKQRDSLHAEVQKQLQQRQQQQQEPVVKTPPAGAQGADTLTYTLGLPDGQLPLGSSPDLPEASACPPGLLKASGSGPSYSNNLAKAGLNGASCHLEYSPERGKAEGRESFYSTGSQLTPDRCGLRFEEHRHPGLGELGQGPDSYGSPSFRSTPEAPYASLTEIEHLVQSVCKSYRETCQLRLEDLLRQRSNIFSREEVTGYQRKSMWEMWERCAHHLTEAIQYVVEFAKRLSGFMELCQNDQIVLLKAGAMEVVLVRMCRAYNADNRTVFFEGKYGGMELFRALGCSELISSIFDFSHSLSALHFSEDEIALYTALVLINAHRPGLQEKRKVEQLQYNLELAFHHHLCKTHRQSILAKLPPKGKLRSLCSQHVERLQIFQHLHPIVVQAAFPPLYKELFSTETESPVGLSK
Description: RORγt Binding Test Using Fluorescent-labeled Cholesterol
The binding activity of the test compound to RORγt was measured by a time resolved fluorescence resonance energy transfer method (TR-FRET) utilizing histidine-tagged RORγt, fluorescent-labeled cholesterol (BODIPY-cholesterol, AVIVA), and terbium-labeled anti-histidine tag antibody (Invitrogen). First, a test compound diluted with an assay buffer (20 mM Tris-HCl (pH 7.5), 100 mM NaCl, 1 mM DTT, 0.1% BSA) was added to a 384 well plate by 3 μL. Then, RORγt diluted with an assay buffer to 240 nM was added by 3 μL, after which fluorescent-labeled cholesterol diluted with the assay buffer to 12 μM was added by 3 μL, and the mixture was stood at room temperature for 20 min. Thereafter, a terbium-labeled anti-histidine tag antibody diluted with the assay buffer to 8 nM was added by 3 μL. The mixture was stood at room temperature for 20 min, and fluorescence intensity (excitation wavelength 320 nm, fluorescence wavelength 520 nm, delay time 100 microseconds) was measured by Envision (PerkinElmer).

RORγt [2] = target: T1, RORγt; test: Jurkat reporter test (human IL-17 ROR response element luciferase, RORγt vector); format: cell-based; settings: read-out: Luminescence level inhibitory rate at test compound 3 μM (%)
Description: The Jurkat cells used for the reporter test were cultured in a culture medium (RPMI (Invitrogen), 10% FCS (AusGeneX), 100 U/mL penicillin, 100 μg/mL streptomycin). On the day of the test, 4×10^7 cells were recovered by a centrifugal operation (1000 rpm, 5 min.) and suspended in PBS (phosphate buffered saline) (Invitrogen). Thereafter, the cells were recovered again by a centrifugal operation, and suspended in 2 mL of R buffer (NEON transfection kit, Invitrogen). […] Gene transfer was performed by Electroporation apparatus (NEON, Invitrogen) under the conditions of pulse voltage 1350 V, interval 10 milliseconds, number of times 3. The cells after gene transfer were suspended in 40 mL of a reaction medium (RPMI, 10% Lipid reduced FCS (HyClone), 10 mM HEPES (pH 7.5), 100 U/mL penicillin, 100 μg/mL streptomycin, 5 μM lovastatin), and plated in a 96 well plate by 90 μL. A test compound diluted with the reaction medium was added by 10 μL, and the cells were cultured overnight in an incubator. Bright-Glo (Promega) was added by 100 μL, and the mixture was stirred at room temperature for 10 min, and the luminescence level was measured by Envision (PerkinElmer).

RORγt [3] = target: T1, RORγt; test: Cofactor recruitment test (Alpha Screen, biotinylated SRC-1 peptide); format: biochemical; settings: read-out: Signal value inhibitory rate at test compound 1 μM (%)
Description: Cofactor Recruitment Test
Cofactor recruitment test was performed by Alpha Screen (Histidine Detection Kit, PerkinElmer) method. First, a test compound was diluted with an assay buffer (50 mM Tris-HCl (pH 7.5), 50 mM KCl, 1 mM DTT, 0.1% BSA) and added to a 384 well plate by 5 μL. […] The mixture was stood in a dark place for 1 hr, and the signal value was measured by Envision (PerkinElmer).

[4] = test compound 3 μM, Jurkat cells

Row | SMILES | inhibition at 1 µM (RORγt [1]) [%] | inhibition at 3 µM (RORγt [2]; [4]) [%] | inhibition at 1 µM (RORγt [3]) [%] | inhibition at 3 µM (RORγt [2]; Jurkat) [%]
1 | CCOc1ccc2c(c1)CCN(C(=O)Cc1cc(O)no1)[C@H]2C(=O)Nc1cc(F)c(C(C)(C)COC)c(F)c1 [Example 165, (1R)-N-(3,5-difluoro-4-(1-methoxy-2-methylpropan-2-yl)phenyl)-6-ethoxy-2-((3-hydroxy-1,2-oxazol-5-yl)acetyl)-1,2,3,4-tetrahydroisoquinoline-1-carboxamide] | 101 | 101 | 96 | –
2 | COc1ccc2c(n1)CCN(C(=O)c1cc(O)no1)[C@H]2C(=O)Nc1ccc(C(C)(C)C)c(F)c1 [Example 77, (5R)-N-(4-tert-butyl-3-fluorophenyl)-6-((3-hydroxy-1,2-oxazol-5-yl)carbonyl)-2-methoxy-5,6,7,8-tetrahydro-1,6-naphthyridine-5-carboxamide] | 101 | 100 | 91 | –
3 | CCOc1ccc2c(c1)CCN(C(=O)Cc1cc(O)no1)C2C(=O)Nc1cc(F)c2c(c1)CCC2(C)C (stereo not drawn) [Example 55, 6-ethoxy-N-(7-fluoro-1,1-dimethyl-2,3-dihydro-1H-inden-5-yl)-2-((3-hydroxy-1,2-oxazol-5-yl)acetyl)-1,2,3,4-tetrahydroisoquinoline-1-carboxamide] | 102 | 100 | 73.4 | –
4 | COc1ccc2c(c1)CCN(C(=O)c1cc(O)no1)[C@H]2C(=O)Nc1cc(F)c(C(C)(C)COCC2CC2)c(F)c1 [Example 158, (1R)-N-(4-(1-(cyclopropylmethoxy)-2-methylpropan-2-yl)-3,5-difluorophenyl)-2-((3-hydroxy-1,2-oxazol-5-yl)carbonyl)-6-methoxy-1,2,3,4-tetrahydroisoquinoline-1-carboxamide] | 101 | 93 | 76 | –
5 | COc1ccc2c(n1)CCN(C(=O)Cc1cc(O)no1)[C@H]2C(=O)Nc1cc(F)c([Si](C)(C)C)c(F)c1 [Example 124, (5R)-N-(3,5-difluoro-4-(trimethylsilyl)phenyl)-6-((3-hydroxy-1,2-oxazol-5-yl)acetyl)-2-methoxy-5,6,7,8-tetrahydro-1,6-naphthyridine-5-carboxamide] | 101 | – | 99 | 102
6 | COc1ccc2c(c1)CCN(C(=O)Cc1nnc(C)o1)[C@H]2C(=O)Nc1ccc(C(C)(C)C)c(F)c1 [Example 28, (1R)-N-(4-tert-butyl-3-fluorophenyl)-6-methoxy-2-((5-methyl-1,3,4-oxadiazol-2-yl)acetyl)-1,2,3,4-tetrahydroisoquinoline-1-carboxamide] | 102 | 101 | 83.2 | –
7 | COc1ccc2c(c1)CCN(C(=O)c1cc(O)no1)C2C(=O)Nc1cc(F)c2c(c1)CCC2(C)C (stereo not drawn) [Example 11, N-(7-fluoro-1,1-dimethyl-2,3-dihydro-1H-inden-5-yl)-2-((3-hydroxy-1,2-oxazol-5-yl)carbonyl)-6-methoxy-1,2,3,4-tetrahydroisoquinoline-1-carboxamide] | 103 | 99.7 | 67.7 | –
8 | COc1ccc2c(c1)CCN(C(=O)Cc1ccc(OC)nc1)[C@H]2C(=O)Nc1ccc(C(C)(C)C)c(F)c1 [Example 32, (1R)-N-(4-tert-butyl-3-fluorophenyl)-6-methoxy-2-((6-methoxypyridin-3-yl)acetyl)-1,2,3,4-tetrahydroisoquinoline-1-carboxamide] | 101 | 103 | 89.9 | –
9 | CCOc1ccc2c(c1)CCN(C(=O)Cc1cc(O)no1)C2C(=O)Nc1ccc(C(C)(C)C)c(F)c1 (stereo not drawn) [Example 54, N-(4-tert-butyl-3-fluorophenyl)-6-ethoxy-2-((3-hydroxy-1,2-oxazol-5-yl)acetyl)-1,2,3,4-tetrahydroisoquinoline-1-carboxamide] | 100 | 101 | 81.9 | –
10 | COc1ccc2c(c1)CCN(C(=O)c1ccc(=O)[nH]c1)[C@H]2C(=O)Nc1ccc([Si](C)(C)C)c(F)c1 [Example 8, (1R)-N-(3-fluoro-4-(trimethylsilyl)phenyl)-6-methoxy-2-((6-oxo-1,6-dihydropyridin-3-yl)carbonyl)-1,2,3,4-tetrahydroisoquinoline-1-carboxamide] | 102 | – | 81.2 | 101
11 | COc1ccc2c(c1)CCN(C(=O)c1ccc(=O)[nH]c1)C2C(=O)Nc1ccc([Si](C)(C)C)cc1 (stereo not drawn) [Example 2, 6-methoxy-2-((6-oxo-1,6-dihydropyridin-3-yl)carbonyl)-N-(4-(trimethylsilyl)phenyl)-1,2,3,4-tetrahydroisoquinoline-1-carboxamide] | 99.7 | – | 80.5 | 98.1
12 | CCOc1ccc2c(n1)CCN(C(=O)Cc1cc(O)no1)[C@H]2C(=O)Nc1cc(F)c([Si](C)(C)C)c(F)c1 [Example 128, (5R)-N-(3,5-difluoro-4-(trimethylsilyl)phenyl)-2-ethoxy-6-((3-hydroxy-1,2-oxazol-5-yl)acetyl)-5,6,7,8-tetrahydro-1,6-naphthyridine-5-carboxamide] | 103 | – | 100 | 103
13 | COc1ccc2c(c1)CCN(C(=O)Cn1cnccc1=O)[C@H]2C(=O)Nc1ccc(C(C)(C)C)c(F)c1 [Example 29, (1R)-N-(4-tert-butyl-3-fluorophenyl)-6-methoxy-2-((6-oxopyrimidin-1(6H)-yl)acetyl)-1,2,3,4-tetrahydroisoquinoline-1-carboxamide] | 102 | 102 | 88 | –
14 | COc1ccc2c(c1)CCN(C(=O)c1cc(O)no1)C2C(=O)Nc1cc(F)c(C(C)(C)C)c(F)c1 (stereo not drawn) [Example 12, N-(4-tert-butyl-3,5-difluorophenyl)-2-((3-hydroxy-1,2-oxazol-5-yl)carbonyl)-6-methoxy-1,2,3,4-tetrahydroisoquinoline-1-carboxamide] | 103 | 99.3 | 82.4 | –
15 | CCOC(=O)C(C)(C)c1ccc(NC(=O)C2c3ccc(OC)cc3CCN2C(=O)c2cc(O)no2)cc1F (stereo not drawn) [Example 37, ethyl 2-(2-fluoro-4-(((2-((3-hydroxy-1,2-oxazol-5-yl)carbonyl)-6-methoxy-1,2,3,4-tetrahydroisoquinolin-1-yl)carbonyl)amino)phenyl)-2-methylpropanoate] | 103 | 98.6 | 98.3 | –
16 | CCOCC(C)(C)c1c(F)cc(NC(=O)[C@H]2c3ccc(OCC)cc3CCN2C(=O)Cc2cc(O)no2)cc1F [Example 168, (1R)-6-ethoxy-N-(4-(1-ethoxy-2-methylpropan-2-yl)-3,5-difluorophenyl)-2-((3-hydroxy-1,2-oxazol-5-yl)acetyl)-1,2,3,4-tetrahydroisoquinoline-1-carboxamide] | 97 | 99 | 86 | –
17 | CC[Si](C)(C)c1c(F)cc(NC(=O)[C@H]2c3ccc(COC)nc3CCN2C(=O)Cc2cc(O)no2)cc1F [Example 173, (5R)-N-(4-(ethyl (dimethyl)silyl)-3,5-difluorophenyl)-6-((3-hydroxy-1,2-oxazol-5-yl)acetyl)-2-(methoxymethyl)-5,6,7,8-tetrahydro-1,6-naphthyridine-5-carboxamide] | 101 | – | 97 | 99
